US20240246960A1 (adMare Therapeutics Society, priority 2021, published 2024)
Where two headings read alike, the source gives them in different places.

Legend:
[1] = system: HCT116 spheroids; experiment: Spheroid + radiation colony forming cell survival assay (SF), HCT116; type: cell-based; settings: 8 Gy
Description: (§1) Multicellular tumour spheroids determination of compound inhibition of pDNA-PK induction following radiation. Tumour spheroids were grown to approximately 0.5 mm in diameter and irradiated with 20 Gy in combination with inhibitor test compounds to determine their potency. Inhibitor concentration for 50% reduction in pDNA-PK induction (IC50) was determined via immunohistochemical staining in spheroid cryosections taken 2 hours following radiation. For cell survival endpoint 8 Gy radiation was used and 3 hours following radiation spheroids were dissociated, counted and plated for colony forming endpoint.
Spheroid+radiation colony forming cell survival assay (SF). Radiation 8 Gy. Drug: serial dilution 5 μM down to 10 nM (12 wells×2 repeat). Spheroids: 5-10 spheroids per well ([…]). HCT116. 5% O2 and 5% CO2. 96 well pate format for assay. Protocol: pre incubate 1 hour with drug, irradiate 8 Gy, post incubate 3 hrs with drug, dissociate spheroids and count cells and plate for colony forming assay. Endpoint: wait 4-7 days and count colonies. Analysis: determine EC50 concentration that increase cell kill by 50% over radiation alone.
(§2) Multicellular tumour spheroids were used to determine potency of test compounds in a 3D tissue environment using inhibition of pDNA-PK induction following radiation or cell survival as the endpoint. For the pDNA-PK endpoint HCT116 or FaDU tumour spheroids were grown to approximately 0.5 mm in diameter and irradiated with 20 Gy in combination with inhibitor test compounds to determine their potency. Experiments were carried out in 96 well plates containing 0.7 mls of MEM media containing 10% FBS and 10 mM glucose under 20% O2 & 5% CO2 at 37° C. Following dilution of compounds 1:1000 from DMSO stocks, compounds were serially diluted from 10 μM down to 3.5 nM and 5-10 spheroids added. 96 well plates were constantly stirred to avoid spheroids settling during the course of the experiment. The inhibitor concentration for 50% reduction in pDNA-PK induction (EC50) was determined via immunohistochemical staining in spheroid cryosections taken 2 hours following radiation using anti-pDNA-PK (ser 2056) and fixed immediately in formalin following sectioning. For cell survival endpoint 8 Gy radiation was used and, 3 hours following radiation, spheroids were dissociated, counted and plated for colony forming endpoint. Data presented in the table compound potency as EC50 [μM].

[2] = biological target: T1, pDNA-PK ser2056 induction in FaDU spheroids (Homo sapiens, UniProt P78527); experiment: Multicellular tumour spheroid + radiation, pDNA-PK inhibition, FaDU; type: cell-based; settings: 20 Gy
T1 construct: host or cells: FaDu
Description: as §1
Spheroid+radiation pDNA-PK. Radiation: 20 Gy. Drug: serial dilution 5 or 10 μM down to 3.5 nM (11 wells). Spheroids: 3-6 spheroids per well (300-500 μm diameter). 20% O2 and 5% CO2. 96 well plate format. Endpoint: fluorescent immunostain pDNA-PK ser2056 and image on microscope. Analysis: determine EC50 concentrations that decreases pDNA-PK induction […] after irradiation.
as §2

[3] = biological target: T2, DNA-PK (Homo sapiens, UniProt P78527); experiment: DNA-PK Assay for Biochemical Enzymatic Inhibition (ADP Glo Kinase assay); settings: Table 1
T2 construct: purchased Invitrogen PR9107A
Method in brief: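 Human DNA-PK (25 ng) preincubated 15 min with compounds (ten three-fold dilutions) in HEPES pH 7.5, MgCl2, KCl, calf thymus DNA buffer, then substrate 434.4 μM and ATP 64.4 μM (final) for 60 min at room temperature. ADP-Glo luminescence; percent inhibition fitted by four-parameter regression for IC50.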

[4] = Microsomal stability assay, mouse liver microsomes; settings: for microsomal CLint at 0.1 uM: male, CD-1, mouse, liver microsomes, pH 7.4, Microsomal Stability Mouse Clint, 0.1 mg/mL microsomes, 0.1 uM compound
[5] = Hepatocyte stability assay, mouse hepatocytes; type: in vitro ADME; settings: for hepatocyte CLint at 1 uM: male, CD-1, mouse, cryopreserved hepatocytes, pH 7.3, 0.7 million cells per mL, 1 uM compound
Method in brief: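 Pooled cryopreserved hepatocytes (male CD-1 mouse, or mixed-gender human donors; ≥10 each) at 0.7 million viable cells/mL in Krebs-Henseleit buffer pH 7.3, with 1 uM compound (≤0.01% DMSO). Incubated up to 2 h at 37 °C/5% CO2, quenched with acetonitrile; parent compound followed by HPLC-MS/MS peak area.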

[6] = Example 8, spheroid, read-out: Cell line: HCT116 Colony forming endpoint Surviving Fraction EC50
[7] = Example 9 Study 2, read-out: Spheroid Cell line: HCT116 Colony forming endpoint Surviving Fraction EC50
[8] = Example 8, spheroid, read-out: Cell line: FaDU Immunohistochemical endpoint pDNA-PK inhibition EC50
[9] = Example 9 Study 2, 20% O2, read-out: Spheroid Cell line: FaDU Immunohistochemical endpoint pDNA-PK inhibition EC50

Row | SMILES | EC50 [1, 6] | EC50 [1, 7] | EC50 [2, 8] | EC50 [2, 9] | IC50 [3] | Microsomal Stability (mouse) % rem. 60 min [4] | microsomal CLint at 0.1 uM [4] | Hepatocyte Stability (mouse) % rem. 120 min [5] | hepatocyte CLint at 1 uM [5]
1 | Cc1nc(C(F)(F)F)cn1[C@H]1CC[C@@H](Oc2nc(N3CCOCC3)cc3ncccc23)CC1 [Compound 17i, 4-(5-(((1s,4s)-4-(2-methyl-4-(trifluoromethyl)-1H-imidazol-1-yl)cyclohexyl)oxy)-1,6-naphthyridin-7-yl)morpholine] | 0.01 to 0.5 µM | 0.01 to 0.5 µM | 0.5 to 1 µM | 0.5 to 1 µM | 0.0005 to 0.001 µM | – | – | – | –
2 | FC(F)(F)c1cncn1[C@H]1CC[C@@H](Oc2nc(N3CCOCC3)cc3ncccc23)CC1 [Compound 17j, 4-(5-(((1s,4s)-4-(5-(trifluoromethyl)-1H-imidazol-1-yl)cyclohexyl)oxy)-1,6-naphthyridin-7-yl)morpholine] | 0.5 to 1 µM | 0.5 to 1 µM | 0.5 to 1 µM | 0.5 to 1 µM | < 0.0005 µM | E (% remaining = 0-25%) | > 116 µL/min/mg | – | –
3 | FC(F)Oc1cnc(N[C@H]2CC[C@@H](Oc3nc(N4CCOCC4)cc4ncccc34)CC2)nc1 [Compound 35, 5-(Difluoromethoxy)-N-((1s,4s)-4-((7-morpholino-1,6-naphthyridin-5-yl)oxy)cyclohexyl)pyrimidin-2-amine] | 1 to 10 µM | 1 to 10 µM | – | – | 0.001 to 0.01 µM | E (% remaining = 0-25%) | > 116 µL/min/mg | – | –
4 | CCOCCOc1cnc(N[C@H]2CC[C@@H](Oc3nc(N4CCOCC4)cc4ncc(O)cc34)CC2)nc1 [Compound 19b, 5-(((1s,4s)-4-((5-(2-Ethoxyethoxy)pyrimidin-2-yl)amino)cyclohexyl)oxy)-7-morpholino-1,6-naphthyridin-3-ol] | 0.01 to 0.5 µM | 0.01 to 0.5 µM | 0.5 to 1 µM | 0.5 to 1 µM | 0.001 to 0.01 µM | – | – | – | –
5 | O=C(N[C@H]1CC[C@@H](Oc2nc(N3CCOCC3)cc3ncccc23)CC1)c1ccco1 [Compound 132, N-((1s,4s)-4-((7-Morpholino-1,6-naphthyridin-5-yl)oxy)cyclohexyl)furan-2-carboxamide] | 0.01 to 0.5 µM | 0.01 to 0.5 µM | 0.01 to 0.5 µM | 0.01 to 0.5 µM | < 0.0005 µM | E (% remaining = 0-25%) | > 116 µL/min/mg | – | –
6 | O=C(N[C@H]1CC[C@@H](Oc2nc(N3CCOCC3)cc3ncccc23)CC1)c1ccc(C(F)(F)F)o1 [Compound 133, N-((1s,4s)-4-((7-Morpholino-1,6-naphthyridin-5-yl)oxy)cyclohexyl)-5-(trifluoromethyl)furan-2-carboxamide] | 1 to 10 µM | 1 to 10 µM | – | – | 0.0005 to 0.001 µM | E (% remaining = 0-25%) | > 116 µL/min/mg | – | –
7 | COc1cnc(N[C@H]2CC[C@@H](Oc3nc(N4CCOCC4)cc4ncc(O)cc34)CC2)nc1 [Compound 19c, 5-(((1s,4s)-4-((5-Methoxypyrimidin-2-yl)amino)cyclohexyl)oxy)-7-morpholino-1,6-naphthyridin-3-ol] | 0.01 to 0.5 µM | 0.01 to 0.5 µM | 0.5 to 1 µM | 0.5 to 1 µM | < 0.0005 µM | – | – | – | –
8 | Fc1cn([C@H]2CC[C@@H](Oc3nc(N4CCOCC4)cc4ncccc34)CC2)cn1 [Compound 17a, 4-(5-(((1s,4s)-4-(4-fluoro-1H-imidazol-1-yl)cyclohexyl)oxy)-1,6-naphthyridin-7-yl)morpholine] | 0.01 to 0.5 µM | 0.01 to 0.5 µM | 0.5 to 1 µM | 0.5 to 1 µM | 0.0005 to 0.001 µM | E (% remaining = 0-25%) | > 116 µL/min/mg | – | –
9 | Cc1cnc(N[C@H]2CC[C@@H](Oc3nc(N4CCOCC4)cc4ncccc34)CC2)nc1 [Compound 32, 5-Methyl-N-((1s,4s)-4-((7-morpholino-1,6-naphthyridin-5-yl)oxy)cyclohexyl)pyrimidin-2-amine] | 0.01 to 0.5 µM | 0.01 to 0.5 µM | 0.5 to 1 µM | 0.5 to 1 µM | < 0.0005 µM | E (% remaining = 0-25%) | > 116 µL/min/mg | – | –
10 | CS(=O)(=O)Nc1cnc2cc(N3CCOCC3)nc(O[C@H]3CC[C@@H](n4ccnc4)CC3)c2c1 [Compound 161, N-(5-(((1s,4s)-4-(1H-imidazol-1-yl)cyclohexyl)oxy)-7-morpholino-1,6-naphthyridin-3-yl)methanesulfonamide] | – | – | 1 to 10 µM | 1 to 10 µM | < 0.0005 µM | F (% remaining = 25-50%) | < 116 µL/min/mg | G (% remaining = 50-75%) | < 8.2 µL/min/1e6 cells
11 | O=C(N[C@H]1CC[C@@H](Oc2nc(N3CCOCC3)cc3ncccc23)CC1)c1cncnc1 [Compound 122, N-((1s,4s)-4-((7-Morpholino-1,6-naphthyridin-5-yl)oxy)cyclohexyl)pyrimidine-5-carboxamide] | 0.5 to 1 µM | 0.5 to 1 µM | 0.5 to 1 µM | 0.5 to 1 µM | 0.001 to 0.01 µM | G (% remaining = 50-75%) | > 116 µL/min/mg | E (% remaining = 0-25%) | > 8.2 µL/min/1e6 cells
12 | Oc1cnc2cc(N3CCOCC3)nc(O[C@H]3CC[C@@H](Nc4ncccn4)CC3)c2c1 [Compound 19a, 7-Morpholino-5-(((1s,4s)-4-(pyrimidin-2-ylamino)cyclohexyl)oxy)-1,6-naphthyridin-3-ol] | 0.5 to 1 µM | 0.5 to 1 µM | 0.5 to 1 µM | 0.5 to 1 µM | 0.001 to 0.01 µM | F (% remaining = 25-50%) | > 116 µL/min/mg | – | –
13 | FC(F)(F)c1cnc(N[C@H]2CC[C@@H](Oc3nc(N4CCOCC4)cc4ncccc34)CC2)nc1 [Compound 34, N-((1s,4s)-4-((7-Morpholino-1,6-naphthyridin-5-yl)oxy)cyclohexyl)-5-(trifluoromethyl)pyrimidin-2-amine] | 1 to 10 µM | 1 to 10 µM | 1 to 10 µM | 1 to 10 µM | 0.0005 to 0.001 µM | E (% remaining = 0-25%) | > 116 µL/min/mg | – | –
